Assay: osmotic coefficient (dimensionless); mn = molality of the nth substance listed, in mol/kg
Conditions: 323.15 K, 100 kPa, Liquid, Knauer K-7000 vapor pressure osmometer (VPO)

CCC[N+]1(C)CCCCC1.O=S(=O)([O-])C(F)(F)F [1-methyl-1-propylpiperidinium triflate] + CC(C)O
Conditions | osmotic coefficient
m1 = 0.0801 | 0.897
m1 = 0.1937 | 0.743
m1 = 0.3155 | 0.645
m1 = 0.4021 | 0.587
m1 = 0.5062 | 0.545
m1 = 0.5964 | 0.516
m1 = 0.7001 | 0.491
m1 = 0.7943 | 0.466
m1 = 0.9894 | 0.443
m1 = 1.268 | 0.422

CCC[N+]1(C)CCCCC1.O=S(=O)([O-])C(F)(F)F [1-methyl-1-propylpiperidinium triflate] + CCC(C)O
Conditions | osmotic coefficient
m1 = 0.0525 | 0.851
m1 = 0.081 | 0.769
m1 = 0.0996 | 0.701
m1 = 0.1561 | 0.608
m1 = 0.1983 | 0.572
m1 = 0.2451 | 0.528
m1 = 0.304 | 0.498
m1 = 0.3569 | 0.477
m1 = 0.4029 | 0.457
m1 = 0.498 | 0.432
m1 = 0.5936 | 0.419
m1 = 0.7108 | 0.405

CCC[N+]1(C)CCCCC1.O=S(=O)([O-])C(F)(F)F [1-methyl-1-propylpiperidinium triflate] + CCCCCO
Conditions | osmotic coefficient
m1 = 0.0415 | 0.757
m1 = 0.0616 | 0.593
m1 = 0.0823 | 0.542
m1 = 0.1025 | 0.521
m1 = 0.1211 | 0.502
m1 = 0.1427 | 0.48
m1 = 0.1632 | 0.472
m1 = 0.1816 | 0.465
m1 = 0.2018 | 0.451
m1 = 0.2209 | 0.441
m1 = 0.2407 | 0.431
m1 = 0.2643 | 0.418

CCC[N+]1(C)CCCCC1.O=S(=O)([O-])C(F)(F)F [1-methyl-1-propylpiperidinium triflate] + CCCCO
Conditions | osmotic coefficient
m1 = 0.053 | 0.781
m1 = 0.0791 | 0.706
m1 = 0.0996 | 0.657
m1 = 0.1455 | 0.604
m1 = 0.2006 | 0.559
m1 = 0.25 | 0.519
m1 = 0.3019 | 0.491
m1 = 0.355 | 0.467
m1 = 0.4011 | 0.453
m1 = 0.4998 | 0.417
m1 = 0.5953 | 0.403
m1 = 0.7001 | 0.387
m1 = 0.78 | 0.379

CCC[N+]1(C)CCCCC1.O=S(=O)([O-])C(F)(F)F [1-methyl-1-propylpiperidinium triflate] + CCCO
Conditions | osmotic coefficient
m1 = 0.0866 | 0.825
m1 = 0.1046 | 0.769
m1 = 0.1966 | 0.661
m1 = 0.2936 | 0.585
m1 = 0.3928 | 0.521
m1 = 0.5005 | 0.483
m1 = 0.6023 | 0.468
m1 = 0.7009 | 0.452
m1 = 0.8047 | 0.438
m1 = 1.008 | 0.418
m1 = 1.195 | 0.398
m1 = 1.422 | 0.379

— the NIST ThermoML archive (doi:10.1016/j.jct.2016.01.026)
